These compounds were tested on isolated guinea pig hearts (coronary artery) (assay: coronary vascular dilative effect in isolated guinea pig hearts (Langendorff's method)). Settings: 37° C., 0.1 ml administered into the coronary artery.
Set-up: species or system guinea pig (Heartley)
Method: The coronary vascular dilative effect of 3N-substituted 3,4-dihydropyrimidine derivatives was tested.
Heartley guinea pigs (weight 400-500 g) were killed by a blow on the head and their hearts were immediately isolated. The hearts were perfused with Krebs-Henseleit solution bubbled with a mixture of 95% O2 +5% CO2 and maintained at 37° C. at a constant rate of 6 ml/minute according to the Langendorff's method [J. Pharmacol. Methods 2, 143 (1979)]. The perfusion pressure was measured by a pressure transducer continuously. Samples were prepared by emulsifying 1 mg of a test compound in 1 ml of a mixture of dimethylsulfoxide and physiological saline solution (1:9) and diluting with physiological saline solution to the predetermined concentration. 0.1 ml of the diluted solution was administered into the coronary artery via a rubber tube connected to an aorta cannula to obtain ED50 (μg/heart) data as shown in Table 3. The numbers of the compounds in the Table correspond respectively to those of the working examples described above.

SMILES | ED50 (coronary vascular dilative effect) [μg/heart]
CC1=NC(C)=C(C(=O)OCC2CC2)C(c2cccc([N+](=O)[O-])c2)N1C(=O)OCCN(C)Cc1ccccc1 (stereo not drawn) [Compound 2] | 0.52
CC1=NC(C)=C(C(=O)OC(C)C)C(c2ccccc2[N+](=O)[O-])N1C(=O)OCCc1ccccn1 (stereo not drawn) [Compound 27] | 0.029
CC1=NC(C)=C(C(=O)OCC2CC2)C(c2ccccc2[N+](=O)[O-])N1C(=O)OCCN1CCN(Cc2ccccc2)CC1 (stereo not drawn) [Compound 24] | 0.01

Each compound was assayed on vertebral artery (assay: vascular resistance of the vertebral artery in anesthetized dogs (ED30)). Settings: Canis lupus familiaris, intravenous injection.
Type: in vivo, dog
Method: The pharmacological effect (ED30) of the compounds of the present invention with respect to the vascular resistance of the vertebral artery in anesthetized dogs was treated by the following procedure.
Adult dogs of either sex (7-14 kg in body weight) were anesthetized with at first thiopental sodium (35 mg/kg, intraperitoneal), anesthetized with urethane (400 mg/kg, intravenous) and chloralose (60 mg/kg, intravenous) and kept under artificial respiration throughout the experiment. After thoracotomy at the left first intercostal space, the vertebral artery was exposed and blood flow was measured with intracorporeal flow probe connected to an electromagnetic flowmeter (MF-27, Nihon Kohden).
At the same time, continuous measurement of the following parameters was made: systemic blood pressure (mean pressure) at the right femoral artery, the limb lead II ECG, the heart rate with a tachometer triggered by the R wave of ECG, and the vascular resistance determined by loading a electronic divider unit (EO-601 G, Nihon Kohden) with the mean values of blood pressure and vertebral artery blood flow. All of these parameters were recorded simultaneously on a polygraph (RM-600, Nihon Kohden).
All the test compounds were injected through a cannula inserted into the femoral vein.
The ED30 (μg/kg) values obtained by intravenous injection are listed in Table 4, wherein the Compound Numbers are keyed to the Example Numbers.

SMILES | ED30 [µg/kg]
CC1=NC(C)=C(C(=O)OCC2CC2)C(c2ccccc2[N+](=O)[O-])N1C(=O)OCCN(C)Cc1ccccn1 (stereo not drawn) [Compound 35] | 4.2
CC1=NC(C)=C(C(=O)OCC2CC2)C(c2cccc([N+](=O)[O-])c2)N1C(=O)OCCN(C)Cc1ccccc1 (stereo not drawn) [Compound 2] | 0.84
COC(=O)C1=C(C)N=C(C)N(C(=O)OCCN(Cc2ccccc2)Cc2ccccc2)C1c1ccccc1[N+](=O)[O-] (stereo not drawn) [Compound 48] | 2
CC1=NC(C)=C(C(=O)OC(C)C)C(c2cccc([N+](=O)[O-])c2)N1C(=O)OCCN(Cc1ccccc1)c1ccccc1 (stereo not drawn) [Compound 70] | 3
CC1=NC(C)=C(C(=O)OCC2CC2)C(c2ccccc2[N+](=O)[O-])N1C(=O)OCCCN(C)Cc1ccccc1 (stereo not drawn) [Compound 16] | 3.8
CC1=NC(C)=C(C(=O)OC(C)C)C(c2ccccc2[N+](=O)[O-])N1C(=O)OCCN(Cc1ccccc1)c1ccccc1 (stereo not drawn) [Compound 50] | 0.74
CC1=NC(C)=C(C(=O)OCC2CC2)C(c2ccccc2[N+](=O)[O-])N1C(=O)OCCN1CCOCC1 (stereo not drawn) [Compound 20] | 4
CC1=NC(C)=C(C(=O)OCC2CC2)C(c2ccccc2[N+](=O)[O-])N1C(=O)OCCc1cccs1 (stereo not drawn) [Compound 63] | 1.3
CC1=NC(C)=C(C(=O)OCC2CC2)C(c2ccccc2[N+](=O)[O-])N1C(=O)OCCN(C)Cc1ccc2ccccc2c1 (stereo not drawn) [Compound 30] | 0.6
CCN(CCOC(=O)N1C(C)=NC(C)=C(C(=O)OCC2CC2)C1c1ccccc1[N+](=O)[O-])c1ccccc1 (stereo not drawn) [Compound 15] | 2.5
CCCOC(=O)C1=C(C)N=C(C)N(C(=O)OCCN(Cc2ccccc2)Cc2ccccc2)C1c1ccccc1[N+](=O)[O-] (stereo not drawn) [Compound 46] | 2
CC1=NC(C)=C(C(=O)OC(C)C)C(c2ccccc2[N+](=O)[O-])N1C(=O)OCCN(CCc1ccccc1)c1ccccc1 (stereo not drawn) [Compound 54] | 1.4
CC1=NC(C)=C(C(=O)OCC(C)C)C(c2ccccc2[N+](=O)[O-])N1C(=O)OCCN(Cc1ccccc1)Cc1ccccc1 (stereo not drawn) [Compound 55] | 3.8
CCOC(=O)C1=C(C)N=C(C)N(C(=O)OCCN(CCCc2ccccc2)Cc2ccccc2)C1c1cccc([N+](=O)[O-])c1 (stereo not drawn) [Compound 38] | 4.2
CC1=NC(C)=C(C(=O)OCC2CC2)C(c2ccccc2[N+](=O)[O-])N1C(=O)OCCN(Cc1ccccc1)Cc1ccccc1 (stereo not drawn) [Compound 52] | 1.5
CC1=NC(C)=C(C(=O)OCC2CC2)C(c2ccccc2[N+](=O)[O-])N1C(=O)OCCSc1nc2ccccc2s1 (stereo not drawn) [Compound 64] | 0.93
CC1=NC(C)=C(C(=O)OC(C)C)C(c2ccccc2[N+](=O)[O-])N1C(=O)OCCN(Cc1ccccc1)Cc1cccs1 (stereo not drawn) [Compound 67] | 1
COC(=O)C1=C(C)N=C(C)N(C(=O)OCCN(CCCc2ccccc2)Cc2ccccc2)C1c1ccccc1[N+](=O)[O-] (stereo not drawn) [Compound 57] | 0.48

SMILES | ED30 [µg/kg]
CC1=NC(C)=C(C(=O)OCC2CC2)C(c2ccccc2[N+](=O)[O-])N1C(=O)OCC1CCCN1Cc1ccccc1 (stereo not drawn) [Compound 19] | 1.4
CC1=NC(C)=C(C(=O)OC(C)C)C(c2ccccc2[N+](=O)[O-])N1C(=O)OCCN(Cc1ccccc1)Cc1ccccn1 (stereo not drawn) [Compound 68] | 4.4
CC1=NC(C)=C(C(=O)OC(C)C)C(c2ccccc2[N+](=O)[O-])N1C(=O)OCCN(Cc1ccccn1)c1ccccc1 (stereo not drawn) [Compound 58] | 2.5
CC1=NC(C)=C(C(=O)OC(C)C)C(c2ccccc2[N+](=O)[O-])N1C(=O)OCCN(Cc1ccccc1)Cc1ccccc1 (stereo not drawn) [Compound 49] | 2.8
CCOC(=O)C1=C(C)N=C(C)N(C(=O)OCCN(CCCc2ccccc2)Cc2ccccc2)C1c1ccccc1[N+](=O)[O-] (stereo not drawn) [Compound 40] | 1.5
CC1=NC(C)=C(C(=O)OCC2CC2)C(c2ccccc2[N+](=O)[O-])N1C(=O)OCCN(C)C(c1ccccc1)c1ccccc1 (stereo not drawn) [Compound 8] | 4.1
CC1=NC(C)=C(C(=O)OCC2CC2)C(c2ccccc2[N+](=O)[O-])N1C(=O)OCCN(C/C=C/c1ccccc1)Cc1ccccc1 (stereo not drawn) [Compound 29] | 2.5
CCCCN(CCOC(=O)N1C(C)=NC(C)=C(C(=O)OCC2CC2)C1c1ccccc1[N+](=O)[O-])Cc1ccccc1 (stereo not drawn) [Compound 14] | 2.1
CC1=NC(C)=C(C(=O)OC(C)C)C(c2ccccc2[N+](=O)[O-])N1C(=O)OCCN(CCCc1ccccc1)Cc1ccccc1 (stereo not drawn) [Compound 39] | 2.3
CC1=NC(C)=C(C(=O)OC(C)C)C(c2ccccc2[N+](=O)[O-])N1C(=O)OCCN(Cc1ccccc1)Cc1ccc2ccccc2c1 (stereo not drawn) [Compound 45] | 1.8
COC(=O)C1=C(C)N=C(C)N(C(=O)OCCN(Cc2ccccc2)c2ccccc2)C1c1ccccc1[N+](=O)[O-] (stereo not drawn) [Compound 71] | 5
CC1=NC(C)=C(C(=O)OC(C)C)C(c2ccccc2[N+](=O)[O-])N1C(=O)OCCN(CCCc1ccccc1)c1ccccc1 (stereo not drawn) [Compound 53] | 2.5
CC1=NC(C)=C(C(=O)OCC(C)C)C(c2ccccc2[N+](=O)[O-])N1C(=O)OCCN(Cc1ccccc1)c1ccccc1 (stereo not drawn) [Compound 60] | 1.7
CC1=NC(C)=C(C(=O)OCC2CC2)C(c2ccccc2[N+](=O)[O-])N1C(=O)OCCN(C)CCc1ccccc1 (stereo not drawn) [Compound 17] | 3.4
CC1=NC(C)=C(C(=O)OC(C)C)C(c2ccccc2[N+](=O)[O-])N1C(=O)OCCN(CCc1ccccc1)Cc1ccccc1 (stereo not drawn) [Compound 62] | 1.2
CC1=NC(C)=C(C(=O)OCC2CC2)C(c2ccccc2[N+](=O)[O-])N1C(=O)OCCN1CCN(c2cccc(C(F)(F)F)c2)CC1 (stereo not drawn) [Compound 26] | 4.1
CCOC(=O)C1=C(C)N=C(C)N(C(=O)OCCN(Cc2ccccc2)Cc2ccccc2)C1c1ccccc1[N+](=O)[O-] (stereo not drawn) [Compound 61] | 1.4
CC1=NC(C)=C(C(=O)OCC2CC2)C(c2ccccc2[N+](=O)[O-])N1C(=O)OCCN(C/C=C/c1ccccc1)Cc1cccs1 (stereo not drawn) [Compound 32] | 3.2

Each compound was assayed on vertebral artery (assay: time course of reduction of the resistance of the vertebral artery in anesthetized dogs (T1/2)). Settings: ED30 doses injected.
Type: in vivo, dog
Method: Selected compounds of the present invention were tested for their ability to reduce the resistance of the vertebral artery in anesthetized dogs.
The animals were injected with the ED30 doses of test compounds and the time course of changes in the vasucular resistance were studied as shown schematically in FIG. 1. From the curve shown in FIG. 1, the values of T1/2 (min) (the time to reach 50% of the resistance drop). The results are shown in Table 5, in which the compound numbers correspond to the Example numbers.

SMILES | T1/2 (the time to reach 50% of the resistance drop) [min]
CC1=NC(C)=C(C(=O)OC(C)C)C(c2ccccc2[N+](=O)[O-])N1C(=O)OCCN(CCCc1ccccc1)CCCc1ccccc1 (stereo not drawn) [Compound 66] | 11.9
CC1=NC(C)=C(C(=O)OCC(C)C)C(c2ccccc2[N+](=O)[O-])N1C(=O)OCCN(Cc1ccccc1)Cc1ccccc1 (stereo not drawn) [Compound 55] | 9.2
CCOC(=O)C1=C(C)N=C(C)N(C(=O)OCCN(CCCc2ccccc2)Cc2ccccc2)C1c1cccc([N+](=O)[O-])c1 (stereo not drawn) [Compound 38] | 8.0
CC1=NC(C)=C(C(=O)OCC2CC2)C(c2ccccc2[N+](=O)[O-])N1C(=O)OCCN(Cc1ccccc1)Cc1ccccc1 (stereo not drawn) [Compound 52] | 8.0
CCCCOC(=O)C1=C(C)N=C(C)N(C(=O)OCCN(Cc2ccccc2)Cc2ccccc2)C1c1ccccc1[N+](=O)[O-] (stereo not drawn) [Compound 47] | 13.0
CC1=NC(C)=C(C(=O)OCC2CC2)C(c2ccccc2[N+](=O)[O-])N1C(=O)OCCN(C/C=C/c1ccccc1)Cc1ccccc1 (stereo not drawn) [Compound 29] | 9.5
CC1=NC(C)=C(C(=O)OC(C)C)C(c2ccccc2[N+](=O)[O-])N1C(=O)OCCN(Cc1ccccc1)Cc1ccc2ccccc2c1 (stereo not drawn) [Compound 45] | 15.6
CC1=NC(C)=C(C(=O)OC(C)C)C(c2ccccc2[N+](=O)[O-])N1C(=O)OCCN(CCCc1ccccc1)c1ccccc1 (stereo not drawn) [Compound 53] | 7.7
CC1=NC(C)=C(C(=O)OCC2CC2)C(c2ccccc2[N+](=O)[O-])N1C(=O)OCCN(C/C=C/c1ccccc1)C/C=C/c1ccccc1 (stereo not drawn) [Compound 33] | 30.5
CC1=NC(C)=C(C(=O)OCC2CC2)C(c2cccc([N+](=O)[O-])c2)N1C(=O)OCCN(CCCc1ccccc1)Cc1ccccc1 (stereo not drawn) [Compound 36] | 12.0
CC1=NC(C)=C(C(=O)OC(C)C)C(c2cccc([N+](=O)[O-])c2)N1C(=O)OCCN(CCCc1ccccc1)Cc1ccccc1 (stereo not drawn) [Compound 37] | 10.3
CC1=NC(C)=C(C(=O)OCC2CC2)C(c2ccccc2[N+](=O)[O-])N1C(=O)OCCN(C/C=C/c1ccccc1)Cc1cccs1 (stereo not drawn) [Compound 32] | 7.0

— patent US4772602A, “N-substituted 3,4-dihydropyrimidine derivatives as agents for treating disorders of cardiovascular system” (Suntory Limited, priority 1985, dated 1988)
